# Patent publication US20150031686A1, “PHENYL-OXAZOLYL DERIVATIVES, PREPARATION METHOD THEREOF, AND RELATED APPLICATION OF THE PHENYL-OXAZOLYL DERIVATIVES AS AN IMPDH INHIBITOR” (INSTITUTE OF MEDICINAL BIOTECHNOLOGY, CHINESE ACADEMY OF …, priority 2012, published 2015)
# Assays:
# IMPDH = IMPDH inhibition activity (A340, IMP substrate, NAD); type: biochemical; settings: compound at 10 μg/mL
# Description: Measurement of IMPDH Inhibitor Activity
# In 96-well plates, use IMP as the substrate and NAD, NADH as chromogenic agents to determine the activity of the compounds described in this invention as IMPDH inhibitor. Add 2 μl of each of the tested sample solution, 20 μl enzyme extract and 30 μl IMP into a sample well in the 96-well plates; 2 μl DMSO and 30 μl IMP solution into a control well; 2 μl DMSO and 20 μl IMPDH buffer instead of the enzyme extract and 30 μl IMP solution into a blank well. Keep plates at constant 37° C. for 15 min, measure absorbance values A340 (OD1) of the solutions in various wells; subsequently, add into each well with 50 μl NAD, keep at constant 37° C. for 50 min, then measure A340 (OD2) values. Calculate IMPDH inhibition rates of samples as follows: Inhibition (%)=[(OD2−OD1)control−(OD2−OD1)Sample]/[(OD2−OD1)control−(OD2−OD1)Blank]×100%.
# [1] = test system: Coxsackie virus type B3 (COX-B3); experiment: Anti-Coxsackie virus type B3 (COX-B3) activity, CPE in Vero cells; type: cell-based; settings: Reed-Muench
# Method in brief: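 Vero cells infected with 10^−5 COX-B3 or COX-B6 virus, adsorbed 2 h; virus removed, then compounds added at eight 3-fold dilutions, ribavirin as positive control. CPE scored when virus controls reached 4+; IC50 by Reed-Muench.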
# [2] = test system: Coxsackie virus type B6 (COX-B6); experiment: Anti-Coxsackie virus type B6 (COX-B6) activity, CPE in Vero cells; type: cell-based; settings: Reed-Muench
# Description: With Vero (African green monkey kidney) cells as viral hosts, inhibitory effects of the compounds of present invention on the grades of pathological lesions by coxsackievirus B3 (COX-B3), B6 (COX-B6) viruses in Vero cells were determined. The measured results of viral inhibitory activity of the compounds are shown in Table 3 and Table 4; wherein RBV is the control drug ribavirin. The inhibitory activities of the measured compounds against coxsackievirus B3, B6 were stronger than the control.
# Screening of Anti-B3, B6 Type Coxsackie Viruses (COX-B3, COX-B6) Activity of the Samples
# Prepare stock solutions of COX-B3 (or COX-B6) virus strains as well as tested compounds in DMSO before use. Before tests, dilute the stock solution with culture solution into a certain concentration and then dilute 3 times to make a total of eight dilutions. Use ribavirin (RBV) as positive control. Test procedures are as follows: seed Vero cells into 96-well culture plates, infect with 10^−5 Coxsackie virus of B3 (or B6) type, 24 hours later; adsorb subsequently for 2 hours, then discard the virus solution, add in the sample compounds and the positive control according to the abovementioned dilutions, set cell control wells and virus control wells simultaneously. When the cytopathic effect (CPE) of cells in the virus control wells reach 4+, observe CPE of the cells in each group. Use Reed-Muench method to calculate 50% inhibitory concentration (IC50) of the sample compounds against coxsackie virus B3 (or B6) type.
# [3] = test system: human hepatoma cell HepG2; experiment: In vitro human hepatoma cell HepG2 inhibitory activity (MTT); type: cell-based; settings: Homo sapiens, HepG2, 48 h
# Excerpt: (§1) According to the progress in the studies on anticancer drugs using IMPDH as a target, the present invention measured inhibitory activities of the compounds of present invention against human hepatoma cell HepG2 and human lung adenocarcinoma cell A549, respectively, the measured results are shown in Table 5:
# In Vitro Human Hepatoma Cell HepG2 Inhibitory Activity Measurement
# Collect well growing tumor cells, prepare 6×10^4/ml cell suspension in RPMI-1640 or DMEM culture medium containing 10% FBS, seed in 96-well plates, 100 μl suspension each well, incubate at 37° C. under 5% CO2 atmosphere for 24 h, add the test solution (final concentration of drug: 0.625, 1.25, 2.5, 5.0, 10 μg/ml), for each concentration set three parallel holes, set positive control (cisplatin 10, 1, 0.1 μg/ml) and a blank control simultaneously. After culture for 48 h discard the supernatants, add into each well 10 μl MTT solution (5 mg/ml, prepared with RPMI-1640 medium), continue culturing for 4 It, add into each hole 100 μl acidified isopropanol cell lysate, culture overnight, measure absorbance (A) values with Bio-Tek MQX200 type microplate reader with the detection wavelength at 540 nm, and reference wavelength 450 nm. Calculate the inhibition rate as follows: inhibition rate=(Ablank−Asample)/Ablank control×100%. Use Graphpad Prism 5 statistical software to calculate IC50.
# [4] = test system: human lung adenocarcinoma cell A549; experiment: In vitro human lung adenocarcinoma cell A549 inhibitory activity (MTT); type: cell-based; settings: Homo sapiens, A549, 48 h
# Excerpt: as §1
# In Vitro Human Lung Adenocarcinoma Cell A549 Inhibitory Activity Measurement
# Cell lines: human lung adenocarcinoma cell A549. Collect well growing tumor cells, prepare cell suspension with Ham's F12 culture solution containing 10% fetal calf serum medium, seed the suspension in 96-well plates, each well 100 μl suspension at 5000 cells/well, incubate at 37° C., under 5% CO2 atmosphere, 24 h later, add 2×drug solution […], each concentration in three parallel holes, set the blank control simultaneously. After culture for 48 h, add 20 μl (5 mg/ml) MTT to each well, culture 4 h, discard the supernatants. Measure absorbance (A) values using Bio-Rad 680 microplate reader at a detection wavelength of 570 nm, the survival rate (%) is calculated as follows: AsampleAblank control×100%. Use statistical software Graphpad Prism5 to calculate IC50. After primary screening of all samples, adjust the concentration gradient of the samples with IC50<100 μg/ml to do additional screenings, which are carried out with two parallel determinations.
# hepatitis B virus [5] = settings: cell line 2215, hepatitis B virus
# [6] = test system: hepatitis B virus strain A64 (lamivudine resistance)
# hepatitis B virus [7] = experiment: in vitro; settings: human
# [8] = test system: hepatitis B virus strain A64 (lamivudine resistance); experiment: in vitro; settings: human
# hepatitis B virus [9] = experiment: microbe, parasite or virus in culture; settings: read-out: IC50 (50% inhibition concentration of the virus)
# [10] = test system: hepatitis B virus strain A64 (lamivudine resistance); experiment: microbe, parasite or virus in culture; settings: read-out: IC50 (50% inhibition concentration of the virus)
smiles,measurement,setting,value
"COc1cc(NCc2ccc(Cl)s2)ccc1-c1cnco1 [Compound 4, N-(5-chlorothien-2-ylmethyl)-3-methoxy-4-(oxazol-5-yl) aniline]",inhibition rate (%) 10 μg/mL,IMPDH,74.9%
same,IC50,[1],0.44 µg/mL
same,IC50,[2],0.27 µg/mL
same,IC50,[3],29.1 µg/mL
same,IC50,[4],16 µg/mL
same,TC50 (half toxic concentration),hepatitis B virus [5],100 µg/mL
same,TC50 (half toxic concentration),[6],> 50 µg/mL
same,selectivity ratio,hepatitis B virus [7],36.8
same,selectivity ratio,[8],> 28.1
same,IC50,hepatitis B virus [9],2.72 µg/mL
same,IC50,[10],1.78 µg/mL
